Each structure is given as a SMILES string. Calls of active or inactive are those of the source. No rule for the calls is given here.

This series concerns CCRIS mutagenicity, Ames/micronucleus/aberration tests. Kind of series: CCRIS mutagenicity studies.
Setting [1] is: Test System: AMES SALMONELLA TYPHIMURIUM, Strain/Indicator: TA100, Metabolic Activation: NONE, Method: STANDARD PLATE.
Setting [2] is: Test System: AMES SALMONELLA TYPHIMURIUM, Strain/Indicator: TA98, Metabolic Activation: NONE, Method: STANDARD PLATE.
The mark [3] stands for this setting: Test System: AMES SALMONELLA TYPHIMURIUM, Strain/Indicator: TA102, Metabolic Activation: NONE, Method: PREINCUBATION

As for `CC[C@H]1OC(=O)[C@H](C)[C@@H](O[C@H]2C[C@@](C)(OC)[C@@H](O)[C@H](C)O2)[C@H](C)[C@@H](O[C@@H]2O[C@H](C)C[C@H](N(C)C)[C@H]2O)[C@](C)(OC)C[C@@H](C)C(=O)[C@H](C)[C@@H](O)[C@]1(C)O`, the mutagenic call is, setting by setting: (End Point: AMES SALMONELLA TYPHIMURIUM, Test System: TA98, Metabolic Activation: NONE, Method: STANDARD PLATE) “inactive; negative”; (End Point: AMES SALMONELLA TYPHIMURIUM, Test System: TA100, Metabolic Activation: NONE, Method: STANDARD PLATE) “inactive; negative”.

As for `O=[N+]([O-])c1cccc(S(=O)(=O)OC[C@@H]2CO2)c1`, under setting [1], the mutagenic call was “active; positive”.

With `COc1ccc2c(c1)c(CC(=O)O)c(C)n2C(=O)c1ccc(Cl)cc1`, the mutagenic call (Test System: AMES SALMONELLA TYPHIMURIUM, Strain/Indicator: TA98, Metabolic Activation: GUINEA PIG, LIVER, S-9, PCB, Method: PREINCUBATION) was “inactive; negative”; the mutagenic call (Test System: AMES SALMONELLA TYPHIMURIUM, Strain/Indicator: TA98, Metabolic Activation: HAMSTER, LIVER, S-9, PCB, Method: PREINCUBATION) is “inactive; negative”; the mutagenic call (Test System: AMES SALMONELLA TYPHIMURIUM, Strain/Indicator: TA98, Metabolic Activation: MOUSE, LIVER, S-9, PCB, Method: PREINCUBATION) was “inactive; negative”; the mutagenic call (Test System: AMES SALMONELLA TYPHIMURIUM, Strain/Indicator: TA98, Metabolic Activation: NONE, Method: PREINCUBATION) was “inactive; negative”; the mutagenic call (Test System: AMES SALMONELLA TYPHIMURIUM, Strain/Indicator: TA98, Metabolic Activation: RAT, LIVER, S-9, PCB, Method: PREINCUBATION) is “inactive; negative”; the mutagenic call (Test System: AMES SALMONELLA TYPHIMURIUM, Strain/Indicator: TA98, Metabolic Activation: RAT, LIVER, S-9, PCB, Method: STANDARD PLATE) is “inactive; negative”. Moreover, the mutagenic call reads like this: (Test System: AMES SALMONELLA TYPHIMURIUM, Strain/Indicator: TA100, Metabolic Activation: GUINEA PIG, LIVER, S-9, PCB, Method: PREINCUBATION) “inactive; negative”; (Test System: AMES SALMONELLA TYPHIMURIUM, Strain/Indicator: TA100, Metabolic Activation: HAMSTER, LIVER, S-9, PCB, Method: PREINCUBATION) “inactive; negative”; (Test System: AMES SALMONELLA TYPHIMURIUM, Strain/Indicator: TA100, Metabolic Activation: MOUSE, LIVER, S-9, PCB, Method: PREINCUBATION) “inactive; negative”; (Test System: AMES SALMONELLA TYPHIMURIUM, Strain/Indicator: TA100, Metabolic Activation: NONE, Method: PREINCUBATION) “inactive; negative”; (Test System: AMES SALMONELLA TYPHIMURIUM, Strain/Indicator: TA100, Metabolic Activation: RAT, LIVER, S-9, PCB, Method: PREINCUBATION) “active; positive”; (Test System: AMES SALMONELLA TYPHIMURIUM, Strain/Indicator: TA100, Metabolic Activation: RAT, LIVER, S-9, PCB, Method: STANDARD PLATE) “inactive; negative”. For the same compound, the mutagenic call reads like this: (Test System: AMES SALMONELLA TYPHIMURIUM, Strain/Indicator: TA1537, Metabolic Activation: RAT, LIVER, S-9, PCB, Method: STANDARD PLATE) “inactive; negative”; (Test System: AMES SALMONELLA TYPHIMURIUM, Strain/Indicator: TA1538, Metabolic Activation: RAT, LIVER, S-9, PCB, Method: STANDARD PLATE) “inactive; negative”; (Test System: E. COLI, Strain/Indicator: WP2 UVRA, Metabolic Activation: RAT, LIVER, S-9, PCB, Method: STANDARD PLATE) “inactive; negative”.

For the compound `CCN(CO)N=O`, the mutagenic call (Test System: CHINESE HAMSTER V-79, Strain/Indicator: V-79/OUABAIN, Metabolic Activation: NONE) was “active; positive”.

In the case of `CCCCOC(=O)/C=C\C(=O)OCCCC`, the mutagenic call is “inactive; negative” (Test System: AMES SALMONELLA TYPHIMURIUM, Strain/Indicator: TA97A, Metabolic Activation: NONE); “inactive; negative” (Test System: AMES SALMONELLA TYPHIMURIUM, Strain/Indicator: TA97A, Metabolic Activation: RAT, LIVER, S-9, AROCLOR 1254); “inactive; negative” (Test System: AMES SALMONELLA TYPHIMURIUM, Strain/Indicator: TA98, Metabolic Activation: NONE); “inactive; negative” (Test System: AMES SALMONELLA TYPHIMURIUM, Strain/Indicator: TA98, Metabolic Activation: RAT, LIVER, S-9, AROCLOR 1254); “inactive; negative” (Test System: AMES SALMONELLA TYPHIMURIUM, Strain/Indicator: TA100, Metabolic Activation: NONE); “inactive; negative” (Test System: AMES SALMONELLA TYPHIMURIUM, Strain/Indicator: TA100, Metabolic Activation: RAT, LIVER, S-9, AROCLOR 1254). The mutagenic call is, setting by setting: (Test System: AMES SALMONELLA TYPHIMURIUM, Strain/Indicator: TA102, Metabolic Activation: NONE) “inactive; negative”; (Test System: AMES SALMONELLA TYPHIMURIUM, Strain/Indicator: TA102, Metabolic Activation: RAT, LIVER, S-9, AROCLOR 1254) “inactive; negative”.

For the compound `CCC1(C)CO1` (configuration not stated), the mutagenic call under setting [2] is “inactive; negative” and the mutagenic call under setting [1] was “inactive; negative”.

For `CCCCNCCCNCCCNC(=O)c1csc(-c2csc(CCNC(=O)C(NC(=O)C(C)C(O)C(C)NC(=O)C(NC(=O)c3nc(C(CC(N)=O)NCC(N)C(N)=O)nc(N)c3C)C(OC3OC(CO)C(O)C(O)C3OC3OC(CO)C(O)C(OC(N)=O)C3O)c3cnc[nH]3)C(C)O)n2)n1` (configuration not stated), under setting [3], the mutagenic call was “active; positive”.

Take `CC1(C)[C@@H]2CC[C@@]1(C)[C@@H](O)C2`: the mutagenic call was “inactive; negative” (Test System: AMES SALMONELLA TYPHIMURIUM, Strain/Indicator: TA97, Metabolic Activation: NONE, Method: PREINCUBATION); “inactive; negative” (Test System: AMES SALMONELLA TYPHIMURIUM, Strain/Indicator: TA97, Metabolic Activation: NONE, Method: PREINCUBATION (20 MIN)); “inactive; negative” (Test System: AMES SALMONELLA TYPHIMURIUM, Strain/Indicator: TA97, Metabolic Activation: RAT, LIVER, S-9, AROCLOR 1254, Method: PREINCUBATION); “inactive; negative” (Test System: AMES SALMONELLA TYPHIMURIUM, Strain/Indicator: TA97, Metabolic Activation: S-9, Method: PREINCUBATION (20 MIN)); “inactive; negative” (Test System: AMES SALMONELLA TYPHIMURIUM, Strain/Indicator: TA98, Metabolic Activation: NONE, Method: PREINCUBATION (20 MIN)); “inactive; negative” (Test System: AMES SALMONELLA TYPHIMURIUM, Strain/Indicator: TA98, Metabolic Activation: S-9, Method: PREINCUBATION (20 MIN)). For the same compound, the mutagenic call by setting is: (Test System: AMES SALMONELLA TYPHIMURIUM, Strain/Indicator: TA100, Metabolic Activation: NONE, Method: PREINCUBATION (20 MIN)) “inactive; negative”; (Test System: AMES SALMONELLA TYPHIMURIUM, Strain/Indicator: TA100, Metabolic Activation: S-9, Method: PREINCUBATION (20 MIN)) “inactive; negative”; under setting [3], “inactive; negative”; (Test System: AMES SALMONELLA TYPHIMURIUM, Strain/Indicator: TA102, Metabolic Activation: RAT, LIVER, S-9, AROCLOR 1254, Method: PREINCUBATION) “inactive; negative”.

For `c1ccc2c(c1)ccc1cc3c(ccc4ccncc43)cc12`, the mutagenic call is “inactive; negative” under setting [2]; “active; positive” (Test System: AMES SALMONELLA TYPHIMURIUM, Strain/Indicator: TA98, Metabolic Activation: RAT, LIVER, S-9, AROCLOR 1254 (10%), Method: STANDARD PLATE); “active; positive” (Test System: AMES SALMONELLA TYPHIMURIUM, Strain/Indicator: TA98, Metabolic Activation: RAT, LIVER, S-9, AROCLOR 1254, Method: STANDARD PLATE); “inactive; negative” under setting [1]; “active; positive” (Test System: AMES SALMONELLA TYPHIMURIUM, Strain/Indicator: TA100, Metabolic Activation: RAT, LIVER, S-9, 1254 (10%), Method: STANDARD PLATE); “active; positive” (Test System: AMES SALMONELLA TYPHIMURIUM, Strain/Indicator: TA100, Metabolic Activation: RAT, LIVER, S-9, AROCLOR 1254, Method: STANDARD PLATE).

For `NC(=O)N/N=C/c1ccco1`, under “Test System: E. COLI, Strain/Indicator: WP2 UVRA, Metabolic Activation: NONE, Method: SPOT”, the mutagenic call was “active; positive”.

Source of the values: PubChem BioAssay AID1259407 (Chemical Carcinogenesis Research Information System (CCRIS), 2018).
